This test deals with CD8F1 mice, subcutaneous mammary adenocarcinoma, T/C%. As to the kind of experiment: NCI In Vivo Anticancer Drug Screen. Data for tumor model Mammary Adenocarcinoma CD8F1 (subcutaneous) in CD8F1. As to conditions: higher = larger tumour. Put shortly: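 Transplantable tumors were established in mice, animals were dosed with compound or vehicle, and survival or tumor size was then measured in both groups. The treated result was divided by the control result.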

[1] abbreviates: endpoint: median tumor weight change, dose: 62.5 mg/kg/injection, schedule: Q01DX001 (ip), vehicle: water.
Setting [2] is: endpoint: median tumor weight (est.), dose: 25.0 mg/kg/injection, schedule: Q07DX005 (ip), vehicle: saline with Tween-80.
Setting [3] is: endpoint: median tumor weight (est.), dose: 50.0 mg/kg/injection, schedule: Q07DX005 (ip), vehicle: saline with Tween-80.
Where [4] appears, read: endpoint: median tumor weight (est.), dose: 6.25 mg/kg/injection, schedule: Q07DX005 (ip), vehicle: saline with Tween-80.
The mark [5] stands for this setting: endpoint: median tumor weight change, dose: 12.5 mg/kg/injection, schedule: Q01DX001 (ip), vehicle: saline with Tween-80.
The mark [6] stands for this setting: endpoint: median tumor weight change, dose: 25.0 mg/kg/injection, schedule: Q01DX001 (ip), vehicle: saline with Tween-80.
[7] abbreviates: endpoint: median tumor weight (est.), dose: 12.5 mg/kg/injection, schedule: Q07DX005 (ip), vehicle: saline.
Setting [8] is: endpoint: median tumor weight (est.), dose: 50.0 mg/kg/injection, schedule: Q07DX005 (ip), vehicle: saline.
Setting [9] is: endpoint: median tumor weight (est.), dose: 100.0 mg/kg/injection, schedule: Q07DX005 (ip), vehicle: saline.
The mark [10] stands for this setting: endpoint: median tumor weight (est.), dose: 200.0 mg/kg/injection, schedule: Q07DX005 (ip), vehicle: saline.
Where [11] appears, read: endpoint: median tumor weight (est.), dose: 400.0 mg/kg/injection, schedule: Q07DX005 (ip), vehicle: saline.

Several values for one entry are separate records, joined by “and”; a condition that tells them apart may be missing. Identical values can stand only once. Results filed as inconclusive are left out.

Consider `C[C@@H]1C[C@H]2[C@@H]3CCC4=CC(=O)C=C[C@]4(C)[C@@]3(F)[C@@H](O)C[C@]2(C)[C@@]1(O)C(=O)CO`, for which the T/C reads like this: (endpoint: median tumor weight (est.), dose: 6.25 mg/kg/injection, schedule: Q07DX005 (ip), vehicle: Klucel (hydroxypropylcellulose) (HPC)) 88 % of control; (endpoint: median tumor weight (est.), dose: 12.5 mg/kg/injection, schedule: Q07DX005 (ip), vehicle: Klucel (hydroxypropylcellulose) (HPC)) 32 % of control; (endpoint: median tumor weight (est.), dose: 25.0 mg/kg/injection, schedule: Q07DX005 (ip), vehicle: Klucel (hydroxypropylcellulose) (HPC)) 31 % of control; (endpoint: median tumor weight (est.), dose: 50.0 mg/kg/injection, schedule: Q07DX005 (ip), vehicle: Klucel (hydroxypropylcellulose) (HPC)) 12 % of control; (endpoint: median tumor weight (est.), dose: 100.0 mg/kg/injection, schedule: Q07DX005 (ip), vehicle: Klucel (hydroxypropylcellulose) (HPC)) 7 % of control.
Regarding `CCN(CC)CCN1C(=O)C2C3C=CC(C2C1=O)C1C2C(=O)N(CCN(CC)CC)C(=O)C2C31` (stereo unspecified), the T/C is 106 % of control (endpoint: median tumor weight change, dose: 15.62 mg/kg/injection, schedule: Q01DX001 (ip), vehicle: water); 111 % of control (endpoint: median tumor weight change, dose: 31.25 mg/kg/injection, schedule: Q01DX001 (ip), vehicle: water); 88 % of control under setting [1]; 92 % of control (endpoint: median tumor weight change, dose: 125.0 mg/kg/injection, schedule: Q01DX001 (ip), vehicle: water).
As for `CC(=O)Nc1ccc(S(=O)(=O)CO)cc1`, the T/C reads like this: (endpoint: median tumor weight (est.), dose: 12.5 mg/kg/injection, schedule: Q07DX005 (ip), vehicle: saline with Tween-80) 222 % of control and 77 % of control; under setting [2], 174 % of control and 409 % of control; under setting [3], 189 % of control and 268 % of control; (endpoint: median tumor weight (est.), dose: 100.0 mg/kg/injection, schedule: Q07DX005 (ip), vehicle: saline with Tween-80) 211 % of control and 271 % of control; (endpoint: median tumor weight (est.), dose: 200.0 mg/kg/injection, schedule: Q07DX005 (ip), vehicle: saline with Tween-80) 186 % of control and 403 % of control; (endpoint: median tumor weight (est.), dose: 400.0 mg/kg/injection, schedule: Q07DX005 (ip), vehicle: saline with Tween-80) 165 % of control and 281 % of control.
`Cc1c(CNc2ccc(C(=O)NC(CC(=O)O)C(=O)O)cc2)ccc2nc(N)nc(N)c12` (stereo unspecified): the T/C was 28 % of control (endpoint: median tumor weight (est.), dose: 3.12 mg/kg/injection, schedule: Q07DX005 (ip), vehicle: saline with Tween-80); 26 % of control (endpoint: median tumor weight (est.), dose: 3.13 mg/kg/injection, schedule: Q07DX005 (ip), vehicle: saline with Tween-80); 29 % of control under setting [4].
Regarding `COC(=O)Nc1cccc(-c2nc3ccc(NC(=O)OC)cc3c(=O)n2-c2ccccc2)c1`, the T/C (endpoint: mean tumor weight, dose: 50.0 mg/kg/injection, schedule: Q07DX006 (ip), vehicle: saline) was 180 % of control; the T/C (endpoint: mean tumor weight, dose: 100.0 mg/kg/injection, schedule: Q07DX006 (ip), vehicle: saline) was 167 % of control; the T/C (endpoint: median tumor weight (est.), dose: 12.5 mg/kg/injection, schedule: Q04DX005 (ip), vehicle: saline) was 101 % of control; the T/C (endpoint: median tumor weight (est.), dose: 12.5 mg/kg/injection, schedule: Q07DX004 (ip), vehicle: saline) was 79 % of control; the T/C (endpoint: median tumor weight (est.), dose: 25.0 mg/kg/injection, schedule: Q07DX004 (ip), vehicle: saline) was 103 % of control; the T/C (endpoint: median tumor weight (est.), dose: 50.0 mg/kg/injection, schedule: Q04DX005 (ip), vehicle: saline) is 109 % of control. Also, the T/C reads like this: (endpoint: median tumor weight (est.), dose: 50.0 mg/kg/injection, schedule: Q07DX004 (ip), vehicle: saline) 88 % of control; (endpoint: median tumor weight (est.), dose: 200.0 mg/kg/injection, schedule: Q04DX005 (ip), vehicle: saline) 88 % of control; (endpoint: median tumor weight (est.), dose: 200.0 mg/kg/injection, schedule: Q07DX004 (ip), vehicle: saline) 113 % of control; (endpoint: median tumor weight (est.), dose: 400.0 mg/kg/injection, schedule: Q07DX004 (ip), vehicle: saline) 101 % of control.
`CC1C(=O)c2cc3c(cc2CCN(C)Cc2c1ccc1c2OCO1)OCO3` (stereo unspecified): the T/C by setting is: under setting [5], 65 % of control; under setting [6], 64 % of control.
`CC1=C[S+](c2ccccc2)c2cccc3cc4ccccc4c1c23` (stereo unspecified): the T/C was 103 % of control (endpoint: median tumor weight change, dose: 0.62 mg/kg/injection, schedule: Q01DX001 (ip), vehicle: saline with Tween-80); 98 % of control (endpoint: median tumor weight change, dose: 5.0 mg/kg/injection, schedule: Q01DX001 (ip), vehicle: saline with Tween-80); 40 % of control and 59 % of control (endpoint: median tumor weight change, dose: 10.0 mg/kg/injection, schedule: Q01DX001 (ip), vehicle: saline with Tween-80).
Turning to `COc1cccc(C2NC(=O)c3c(n[nH]c3N)S2)c1O` (stereo unspecified), the T/C reads like this: (endpoint: median tumor weight change, dose: 112.5 mg/kg/injection, schedule: Q01DX001 (ip), vehicle: saline with Tween-80) 71 % of control; (endpoint: median tumor weight change, dose: 225.0 mg/kg/injection, schedule: Q01DX001 (ip), vehicle: saline with Tween-80) 91 % of control; (endpoint: median tumor weight change, dose: 450.0 mg/kg/injection, schedule: Q01DX001 (ip), vehicle: saline with Tween-80) 92 % of control; (endpoint: median tumor weight change, dose: 900.0 mg/kg/injection, schedule: Q01DX001 (ip), vehicle: saline with Tween-80) 76 % of control; (endpoint: median tumor weight change, dose: 1800.0 mg/kg/injection, schedule: Q01DX001 (ip), vehicle: saline with Tween-80) 79 % of control.
With `N=c1nc2n(cc1F)[C@@H]1O[C@H](CO)[C@@H](O)[C@@H]1O2`, the T/C reads like this: under setting [7], 25 % of control; under setting [8], 71 % of control; (endpoint: median tumor weight (est.), dose: 50.0 mg/kg/injection, schedule: Q07DX005 (ip), vehicle: suspension in saline) 86 % of control; under setting [9], 68 % of control; (endpoint: median tumor weight (est.), dose: 100.0 mg/kg/injection, schedule: Q07DX005 (ip), vehicle: suspension in saline) 57 % of control; under setting [10], 56 % of control. In addition, the T/C runs as follows: (endpoint: median tumor weight (est.), dose: 200.0 mg/kg/injection, schedule: Q07DX005 (ip), vehicle: suspension in saline) 63 % of control; under setting [11], 33 % of control; (endpoint: median tumor weight (est.), dose: 400.0 mg/kg/injection, schedule: Q07DX005 (ip), vehicle: suspension in saline) 69 % of control; (endpoint: median tumor weight (est.), dose: 800.0 mg/kg/injection, schedule: Q07DX005 (ip), vehicle: suspension in saline) 58 % of control; (endpoint: median tumor weight (est.), dose: 1600.0 mg/kg/injection, schedule: Q07DX005 (ip), vehicle: suspension in saline) 72 % of control.
Consider `CNC(=O)c1cccc2c(Nc3ccc(NS(C)(=O)=O)cc3OC)c3cccc(C)c3nc12`, for which the T/C by setting is: (endpoint: median tumor weight change, dose: 60.0 mg/kg/injection, schedule: Q01DX001 (ip), vehicle: water) 6 % of control; under setting [1], -63 % of control; (endpoint: median tumor weight change, dose: 120.0 mg/kg/injection, schedule: Q01DX001 (ip), vehicle: other) -68 % of control.
Turning to `C[n+]1c2cc(N)ccc2cc2ccc(N)cc21`, the T/C is 104 % of control (endpoint: median tumor weight (est.), dose: 6.25 mg/kg/injection, schedule: Q07DX005 (ip), vehicle: saline) and 211 % of control under setting [7].
For the compound `O=S1(=O)C=C(c2ccccc2)C(c2ccccc2)=C1`, the T/C is 80 % of control under setting [4], 72 % of control under setting [2] and 108 % of control under setting [3].
As for `N/C=N/O`, the T/C was 109 % of control (endpoint: median tumor weight (est.), dose: 25.0 mg/kg/injection, schedule: Q07DX005 (ip), vehicle: saline); 181 % of control under setting [8]; 164 % of control under setting [9]; 105 % of control under setting [10]; 97 % of control under setting [11]; 78 % of control (endpoint: median tumor weight (est.), dose: 600.0 mg/kg/injection, schedule: Q07DX005 (ip), vehicle: saline).
As to `N#CCCSC(=S)C1CCCC1=N` (stereo unspecified), the T/C is 44 % of control (endpoint: median tumor weight change, dose: 125.0 mg/kg/injection, schedule: Q01DX001 (ip), vehicle: saline with Tween-80); 98 % of control (endpoint: median tumor weight change, dose: 250.0 mg/kg/injection, schedule: Q01DX001 (ip), vehicle: saline with Tween-80); 86 % of control and 108 % of control (endpoint: median tumor weight change, dose: 500.0 mg/kg/injection, schedule: Q01DX001 (ip), vehicle: saline with Tween-80).
Consider `CCc1nc(N)nc(N)c1-c1ccc(Cl)c([N+](=O)[O-])c1`, for which the T/C (endpoint: median tumor weight change, dose: 6.25 mg/kg/injection, schedule: Q01DX001 (ip), vehicle: saline with Tween-80) is 47 % of control; the T/C under setting [5] is 39 % of control; the T/C under setting [6] is 20 % of control; the T/C (endpoint: median tumor weight change, dose: 50.0 mg/kg/injection, schedule: Q01DX001 (ip), vehicle: saline with Tween-80) was 38 % of control; the T/C (endpoint: median tumor weight change, dose: 100.0 mg/kg/injection, schedule: Q01DX001 (ip), vehicle: saline with Tween-80) was 47 % of control.
